Active and inactive are the calls of the source. The calls are words filed in the database; no cut-off is given here.
Key:
[1] = molecular target: T1, Peroxisome proliferator-activated receptor alpha (Homo sapiens, UniProt Q07869); assay: Binding affinity against Peroxisome Proliferator activated receptor alpha (PPAR alpha); Not active
T1 sequence (Q07869 whole entry): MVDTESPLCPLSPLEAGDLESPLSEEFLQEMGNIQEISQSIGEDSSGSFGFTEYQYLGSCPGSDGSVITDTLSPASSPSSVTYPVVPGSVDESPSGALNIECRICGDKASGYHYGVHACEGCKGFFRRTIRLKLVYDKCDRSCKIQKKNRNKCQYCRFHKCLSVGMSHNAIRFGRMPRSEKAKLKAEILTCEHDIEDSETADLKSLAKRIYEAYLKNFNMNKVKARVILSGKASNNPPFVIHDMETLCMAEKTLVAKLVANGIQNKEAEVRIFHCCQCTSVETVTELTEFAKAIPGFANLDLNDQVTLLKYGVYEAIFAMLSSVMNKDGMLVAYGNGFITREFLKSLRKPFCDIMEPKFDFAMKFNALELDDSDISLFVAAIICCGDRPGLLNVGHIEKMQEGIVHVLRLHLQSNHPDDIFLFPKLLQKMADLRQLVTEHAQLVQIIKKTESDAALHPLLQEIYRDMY

[2] = molecular target: T2, Peroxisome proliferator-activated receptor delta (Homo sapiens, UniProt Q03181)
T2 sequence (Q03181 whole entry): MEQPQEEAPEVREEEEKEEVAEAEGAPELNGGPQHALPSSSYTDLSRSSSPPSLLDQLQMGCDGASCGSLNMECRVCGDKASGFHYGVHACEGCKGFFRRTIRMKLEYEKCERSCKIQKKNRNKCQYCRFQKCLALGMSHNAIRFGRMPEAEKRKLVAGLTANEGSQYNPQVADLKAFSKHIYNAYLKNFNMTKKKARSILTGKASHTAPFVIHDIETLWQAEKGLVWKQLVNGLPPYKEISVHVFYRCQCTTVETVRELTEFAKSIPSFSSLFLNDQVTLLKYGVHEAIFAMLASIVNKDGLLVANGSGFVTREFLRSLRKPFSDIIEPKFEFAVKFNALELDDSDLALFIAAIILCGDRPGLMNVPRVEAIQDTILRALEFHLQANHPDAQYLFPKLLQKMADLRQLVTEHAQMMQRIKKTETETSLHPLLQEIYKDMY

[3] = Pharmacokinetic property (oral bioavailability) in rat (dose given as a solution); assay type: ADME, organism-based; conditions: in vivo
[4] = Pharmacokinetic property (oral bioavailability) in rat (dose given as a suspension); assay type: ADME, organism-based; conditions: in vivo
[5] = Pharmacokinetic property (total body clearance) in rat; assay type: ADME, organism-based; conditions: in vivo, read-out: CLtotal
[6] = Pharmacokinetic property (half life) in rat; assay type: ADME, organism-based; conditions: in vivo
[7] = molecular target: T3, Peroxisome proliferator-activated receptor gamma (Homo sapiens, UniProt P37231); assay: Inhibitory concentration of the PPAR gamma)
T3 sequence (P37231 whole entry): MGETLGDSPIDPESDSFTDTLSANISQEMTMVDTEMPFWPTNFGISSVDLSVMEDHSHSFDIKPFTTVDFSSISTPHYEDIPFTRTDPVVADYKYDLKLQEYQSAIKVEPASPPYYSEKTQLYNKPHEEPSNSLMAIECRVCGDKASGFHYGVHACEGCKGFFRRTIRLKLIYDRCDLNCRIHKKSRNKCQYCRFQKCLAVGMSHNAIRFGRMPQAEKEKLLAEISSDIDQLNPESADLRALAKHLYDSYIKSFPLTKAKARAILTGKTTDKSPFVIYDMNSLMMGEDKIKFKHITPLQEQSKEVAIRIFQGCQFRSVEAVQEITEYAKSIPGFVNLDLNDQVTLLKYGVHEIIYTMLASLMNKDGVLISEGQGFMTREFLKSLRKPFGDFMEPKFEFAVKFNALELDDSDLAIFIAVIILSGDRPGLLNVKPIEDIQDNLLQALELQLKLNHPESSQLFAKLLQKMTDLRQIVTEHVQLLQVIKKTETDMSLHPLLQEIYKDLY

[8] = molecular target: T3, Peroxisome proliferator-activated receptor gamma; assay: Binding affinity against human Peroxisome proliferator activated receptor gamma (PPAR gamma)
[9] = molecular target: T3, Peroxisome proliferator-activated receptor gamma
[10] = molecular target: T3, Peroxisome proliferator-activated receptor gamma; remark: listed apart in the source
[11] = molecular target: T4, Peroxisome proliferator-activated receptor gamma (Homo sapiens) (UniProt P37231); assay: Binding affinity against Peroxisome proliferator activated receptor gamma (PPAR gamma); Inactive at 10e-4 M
T4 sequence (whole entry): T3 sequence (P37231 whole entry)

[12] = molecular target: T4, Peroxisome proliferator-activated receptor gamma (Homo sapiens); assay: Transcriptional activation of peroxisome proliferator activated receptor gamma activity; Inactive at 10e-4 M; assay type: functional

| Compound | Ki [1] | Ki [2] | Ki [9] [nM] | EC50 [10] [nM] | also measured |
| --- | --- | --- | --- | --- | --- |
| Cc1c(C)c2c(c(C)c1O)CCC(C)(COc1ccc(CC3SC(=O)NC3=O)cc1)O2 (stereo unspecified) [TROGLITAZONE] | Not Active | Not Active |  |  |  |
| COc1ccc(CCc2c(-c3ccccc3)[nH]c3ccc(CC(=O)O)cc23)cc1 | Not Active | Not Active | 47.9 | 43.7 | bioavailability [3]: 78%; bioavailability [4]: 73%; clearance [5]: 3 mL/min/kg; half-life [6]: 3.8 h; IC50 [7]: 50 nM; Ki [8]: 50 nM |
| O=C(O)Cc1ccc2[nH]cc(CCc3ccccc3)c2c1 | Not Active | Not Active | > 10000 | > 10000 |  |
| O=C(O)Cc1ccc2[nH]c(-c3ccccc3)c(Cc3ccccc3)c2c1 | Not Active | Not Active |  | > 10000 | Log Ki [11]: inactive |
| CCc1ccc(CCOc2ccc(CC3SC(=O)NC3=O)cc2)nc1 (stereo unspecified) [PIOGLITAZONE] | Not Active | Not Active |  |  |  |
| CN(CCOc1ccc(CC2SC(=O)NC2=O)cc1)c1ccccn1 (stereo unspecified) [ROSIGLITAZONE] | Not Active |  |  |  |  |
| CCCc1c(-c2ccccc2)[nH]c2ccc(CC(=O)O)cc12 | Not Active | Not Active |  | 7080 |  |
| O=C(O)Cc1ccc2[nH]c(-c3ccccc3)cc2c1 | Not Active | Not Active |  |  | Log EC50 [12]: inactive |
| O=C(O)CCc1ccc2[nH]c(-c3ccccc3)c(CCc3ccccc3)c2c1 | Not Active | Not Active |  | 3020 |  |
| CCCc1c(-c2ccccc2)[nH]c2ccc(C(=O)O)cc12 | Not Active | Not Active |  | > 10000 |  |
| O=C1CSC(=O)N1Cc1ccc2[nH]c(-c3ccccc3)c(CCc3ccccc3)c2c1 | Not Active | Not Active |  | > 10000 |  |
| O=C(O)Cc1ccc2[nH]c(-c3ccccc3)c(-c3ccccc3)c2c1 | Not Active | Not Active | > 10000 | > 10000 |  |
| Cn1c(-c2ccccc2)c(CCc2ccccc2)c2cc(OCC(=O)O)ccc21 | Not Active | Not Active |  | > 10000 |  |
| O=C(O)Cc1ccc2[nH]c(-c3ccccc3)c(CCc3ccccc3)c2c1 | Not Active | Not Active |  | 309 |  |
| O=C(O)Cc1ccc2[nH]c(-c3ccc(F)cc3)c(CCc3ccc(F)cc3)c2c1 | Not Active | Not Active | 490 | 339 |  |
| Cn1c(-c2ccccc2)c(CCc2ccccc2)c2cc(CC(=O)O)ccc21 | Not Active | Not Active | 550 | 5620 |  |
